In patent US20240108674A1, “BERBERIS EXTRACT NANO-FORMULATION AND PROCESS OF PREPARATION THEREOF” (priority 2021, published 2024):

System: RBC membrane
Assay: In-vitro anti-inflammatory activity, RBC membrane protection
Assay type: cell-based
Details: concentration of 5 mg/mL

Row | SMILES | RBC membrane protection
1 | C[C@]12C=CC(=O)C=C1CC[C@@H]1[C@@H]2[C@@H](O)C[C@@]2(C)[C@H]1CC[C@]2(O)C(=O)CO [prednisolone] | 73%
2 | O=C(O)Cc1ccccc1Nc1c(Cl)cccc1Cl [diclofenac sodium] | 76%
